Results reported in patent publication EP0373543A2, “Diagnostic media and assay for detecting fungicide resistance” (BASF Corporation, priority 1988, dated 1990).

Tested on: Botrytis cinerea
Assay: Color change response at varied vinclozolin concentration (Example 4)
Assay type: cell-based
Design: key: T = only slight color change
Conditions: pH 5.5, about 48 hours
Protocol: Diagnostic media was prepared substantially as described above in Preparation Example 1 and the pH adjusted to 5.5 except that the vinclozolin concentrations in the media varied from about 10 ppm to 1000 ppm. The media was inoculated with 1 vinclozolin sensitive (BC-A) and 1 vinclozolin resistant isolate (BC-4) of Botrytis cinerea) and incubated at room temperature for about 48 hours.

Measured: Color Change Response

C=CC1(C)OC(=O)N(c2cc(Cl)cc(Cl)c2)C1=O (stereo not drawn) [vinclozolin]
T: isolate BC-4 (vinclozolin resistant), vinclozolin 500 ppm | isolate BC-4 (vinclozolin resistant), vinclozolin 1000 ppm | isolate BC-A (vinclozolin sensitive), vinclozolin 1000 ppm
